Assay results published in patent US20240391862A1, “(1,4,5-TRISUBSTITUTED-1H-PYRAZOL-3-YL)OXY-2-ALKOXY ALKYL ACIDS AND THEIR DERIVATIVES, THEIR SALTS AND THEIR USE AS HERBICIDAL AGENTS” (Bayer AKtiengesellschaft, priority 2021, published 2024).

Experiments:
Assay in all cases: Post-emergence herbicidal effect, greenhouse pot test
POLCO = type: in vivo, Fallopia convolvulus; conditions: Fallopia convolvulus, 504 h, read-out: Post-emergence effect against POLCO in %
Text: (§1) • ALOMY: Alopecurus myosuroides SETVI: Setaria viridis • AVEFA: Avena fatua POLCO: Fallopia convolvulus • AMARE: Amaranthus retroflexus ECHCG: Echinochloa crus-galli • LOLRJ: Lolium rigidum STEME: Stellaria media • VERPE: Veronica persica MATIN: Tripleurospermum inodorum • DIGSA: Digitaria sanguinalis ABUTH: Abutylon threophrasti • TRZAS: Triticum aestivum VIOTR: Viola tricolor • BRSNW: Brassica napus ZEAMX: Zea mays • PHBPU: Ipomoea purpurea GLXMA: Glycine max • ORYSA: Oryza sativa HORMU: Hordeum murinum
(§2) Seeds of monocotyledonous and dicotyledonous weeds and crop plants are placed in sandy loam in plastic or organic planting pots, covered with soil and cultivated in a greenhouse under controlled growth conditions. 2 to 3 weeks after sowing, the trial plants are treated at the one-leaf stage. The compounds of the invention, formulated in the form of wettable powders (WP) or as emulsion concentrates (EC), are then sprayed onto the green parts of the plants as aqueous suspension or emulsion with addition of 0.5% additive at a water application rate of 600 l/ha (converted). After the test plants have been kept in the greenhouse under optimum growth conditions for about 3 weeks, the activity of the preparations is rated visually in comparison to untreated controls. For example, 100% activity=the plants have died, 0% activity=like control plants.
(§3) Tables 20a to 38c below show the effects/crop compatibilities of selected compounds of the general formula (I) on various harmful plants at an application rate corresponding to 20 to 320 g/ha, which were obtained by the trial procedure specified above.

ALOMY = type: in vivo, Alopecurus myosuroides; conditions: visual rating about 3 weeks after treatment; for pest or weed control at 80 g/ha / pest or weed control at 320 g/ha: Alopecurus myosuroides, 504 h, read-out: Post-emergence effect against ALOMY
Text: as §1, §2, §3

MATIN = type: in vivo, Tripleurospermum inodorum; conditions: for pest or weed control at 20 g/ha / pest or weed control at 80 g/ha / pest or weed control at 320 g/ha: Tripleurospermum inodorum, 504 h, read-out: Post-emergence effect against MATIN in %
Text: as §1, §2, §3

AMARE = type: in vivo, Amaranthus retroflexus; conditions: visual rating about 3 weeks after treatment; for pest or weed control at 80 g/ha / pest or weed control at 320 g/ha: Amaranthus retroflexus, 504 h, read-out: Post-emergence effect against AMARE
Text: as §1, §2, §3

VERPE = type: in vivo, Veronica persica; conditions: for pest or weed control at 20 g/ha / pest or weed control at 80 g/ha / pest or weed control at 320 g/ha: Veronica persica, 504 h, read-out: Post-emergence effect against VERPE in %
Text: as §1, §2, §3

LOLRI = type: in vivo, Lolium rigidum; conditions: Lolium rigidum, 504 h, read-out: Post-emergence effect against LOLRI in %
Text: as §1, §2, §3

ECHCG = type: in vivo, Echinochloa crus-galli; conditions: for pest or weed control at 20 g/ha / pest or weed control at 80 g/ha / pest or weed control at 320 g/ha: Echinochloa crus-galli, 504 h; for pest or weed control at 20 g/ha: visual rating about 3 weeks after treatment, read-out: Post-emergence effect against ECHCG; for pest or weed control at 80 g/ha / pest or weed control at 320 g/ha: read-out: Post-emergence effect against ECHCG in %
Text: as §1, §2, §3

VIOTR = type: in vivo, Viola tricolor; conditions: for pest or weed control at 20 g/ha / pest or weed control at 80 g/ha / pest or weed control at 320 g/ha: Viola tricolor, 504 h, read-out: Post-emergence effect against VIOTR in %
Text: as §1, §2, §3

AVEFA = type: in vivo, Avena fatua; conditions: visual rating about 3 weeks after treatment; for pest or weed control at 80 g/ha / pest or weed control at 320 g/ha: Avena fatua, 504 h, read-out: Post-emergence effect against AVEFA
Text: as §1, §2, §3

SETVI = type: in vivo, Setaria viridis; conditions: for pest or weed control at 80 g/ha / pest or weed control at 320 g/ha / pest or weed control at 20 g/ha: Setaria viridis, 504 h, read-out: Post-emergence effect against SETVI in %
Text: as §1, §2, §3

PHBPU = type: in vivo, Ipomoea purpurea; conditions: for pest or weed control at 80 g/ha / pest or weed control at 20 g/ha / pest or weed control at 320 g/ha: Ipomoea purpurea, 504 h, read-out: Post-emergence effect against PHBPU in %
Text: as §1, §2, §3

DIGSA = type: in vivo, Digitaria sanguinalis; conditions: visual rating about 3 weeks after treatment; for pest or weed control at 80 g/ha / pest or weed control at 320 g/ha: Digitaria sanguinalis, 504 h, read-out: Post-emergence effect against DIGSA
Text: as §1, §2, §3

ABUTH = type: in vivo, Abutilon theophrasti; conditions: Abutilon theophrasti, 504 h, visual rating about 3 weeks after treatment, read-out: Post-emergence effect against ABUTH
Text: as §1, §2, §3

Structure (SMILES) | pest or weed control at 320 g/ha (POLCO) [%] | pest or weed control at 20 g/ha (MATIN) [%] | pest or weed control at 80 g/ha (MATIN) [%] | pest or weed control at 80 g/ha (AMARE) [%] | pest or weed control at 20 g/ha (VERPE) [%] | pest or weed control at 320 g/ha (LOLRI) [%] | pest or weed control at 80 g/ha (ECHCG) [%] | pest or weed control at 20 g/ha (VIOTR) [%] | pest or weed control at 80 g/ha (VIOTR) [%] | pest or weed control at 80 g/ha (AVEFA) [%] | pest or weed control at 80 g/ha (SETVI) [%] | pest or weed control at 80 g/ha (PHBPU) [%] | pest or weed control at 320 g/ha (ALOMY; 320 g/ha) [%] | pest or weed control at 320 g/ha (MATIN; 320 g/ha) [%] | pest or weed control at 320 g/ha (AMARE; 320 g/ha) [%] | pest or weed control at 80 g/ha (VERPE; 80 g/ha) [%] | pest or weed control at 320 g/ha (VERPE; 320 g/ha) [%] | pest or weed control at 80 g/ha (ABUTH) [%] | pest or weed control at 320 g/ha (ABUTH) [%] | pest or weed control at 320 g/ha (ECHCG; 320 g/ha) [%] | also measured
CCOC(=O)C(OC)Oc1nn(-c2ccccc2F)c(-c2ccc(F)nc2)c1Br (stereo not shown) [Example I-23] | 80 | 80 | 80 | 80 | 80 | 90 | 80 | 80 | 80 | 80 | 80 | 80 | – | – | – | – | – | – | – | – | Post-emergence effect against ALOMY (ALOMY; 320 g/ha): 90%; pest or weed control at 80 g/ha (ALOMY): 90%; Post-emergence effect against MATIN in % (MATIN; 320 g/ha): 90%; Post-emergence effect against AMARE (AMARE; 320 g/ha): 90%; Post-emergence effect against VERPE in % (VERPE; 80 g/ha): 90%; Post-emergence effect against VERPE in % (VERPE; 320 g/ha): 90%; Post-emergence effect against ECHCG in % (ECHCG; 320 g/ha): 90%; pest or weed control at 20 g/ha (ECHCG): 80%; Post-emergence effect against VIOTR in % (VIOTR; 320 g/ha): 80%; Post-emergence effect against AVEFA (AVEFA; 320 g/ha): 80%; Post-emergence effect against SETVI in % (SETVI; 320 g/ha): 90%; Post-emergence effect against PHBPU in % (PHBPU; 320 g/ha): 90%; Post-emergence effect against DIGSA (DIGSA; 320 g/ha): 90%; pest or weed control at 80 g/ha (DIGSA): 90%
COC(=O)C(OC)Oc1nn(-c2cc(F)ccc2F)c(-c2cncc(F)c2)c1Br (stereo not shown) [Example I-29] | 80 | 80 | 90 | 90 | – | 90 | 80 | 80 | 90 | 90 | 90 | 80 | 90 | 90 | 90 | 90 | 90 | 80 | 90 | 90 | pest or weed control at 320 g/ha (VIOTR; 320 g/ha): 90%; pest or weed control at 320 g/ha (AVEFA; 320 g/ha): 90%; pest or weed control at 320 g/ha (SETVI; 320 g/ha): 90%; pest or weed control at 20 g/ha (PHBPU): 80%; pest or weed control at 320 g/ha (PHBPU; 320 g/ha): 90%; pest or weed control at 320 g/ha (DIGSA; 320 g/ha): 80%
COC(=O)C(OC)Oc1nn(-c2ccccc2)c(-c2ccc(F)nc2)c1Br (stereo not shown) [Example I-30] | 80 | – | 80 | 80 | 80 | 90 | 90 | 80 | 90 | 90 | 90 | 80 | 90 | 90 | 80 | 80 | 90 | 80 | 90 | 90 | pest or weed control at 80 g/ha (POLCO): 80%; pest or weed control at 20 g/ha (ECHCG): 80%; pest or weed control at 320 g/ha (VIOTR; 320 g/ha): 90%; pest or weed control at 320 g/ha (AVEFA; 320 g/ha): 90%; pest or weed control at 20 g/ha (SETVI): 80%; pest or weed control at 320 g/ha (SETVI; 320 g/ha): 90%; pest or weed control at 320 g/ha (PHBPU; 320 g/ha): 90%; pest or weed control at 80 g/ha (DIGSA): 90%; pest or weed control at 320 g/ha (DIGSA; 320 g/ha): 90%
CCOC(=O)C(OC)Oc1nn(-c2cc(F)ccc2F)c(-c2cncc(F)c2)c1C1CC1 (stereo not shown) [Example I-37] | 90 | 80 | 90 | 90 | 90 | 100 | 100 | 80 | 90 | 80 | 90 | 90 | 100 | 90 | 90 | 100 | 100 | 90 | 90 | 100 | pest or weed control at 80 g/ha (POLCO): 90%; pest or weed control at 80 g/ha (ALOMY): 100%; pest or weed control at 80 g/ha (LOLRI): 90%; pest or weed control at 20 g/ha (ABUTH; 20 g/ha): 80%; pest or weed control at 320 g/ha (VIOTR; 320 g/ha): 90%; pest or weed control at 320 g/ha (AVEFA; 320 g/ha): 90%; pest or weed control at 320 g/ha (SETVI; 320 g/ha): 90%; pest or weed control at 20 g/ha (PHBPU): 90%; pest or weed control at 320 g/ha (PHBPU; 320 g/ha): 90%; pest or weed control at 320 g/ha (DIGSA; 320 g/ha): 90%
COC(=O)C(OC)Oc1nn(-c2cc(F)ccc2F)c(-c2cncc(F)c2)c1C1CC1 (stereo not shown) [Example I-111] | 80 | 80 | 80 | 80 | 80 | 90 | 90 | – | 80 | 90 | 80 | 90 | 90 | 80 | 80 | 80 | 80 | 80 | 90 | 90 | pest or weed control at 80 g/ha (POLCO): 80%; pest or weed control at 80 g/ha (ALOMY): 80%; pest or weed control at 80 g/ha (LOLRI): 90%; pest or weed control at 20 g/ha (ECHCG): 80%; pest or weed control at 320 g/ha (VIOTR; 320 g/ha): 80%; pest or weed control at 320 g/ha (AVEFA; 320 g/ha): 90%; pest or weed control at 20 g/ha (SETVI): 80%; pest or weed control at 320 g/ha (SETVI; 320 g/ha): 80%; pest or weed control at 20 g/ha (PHBPU): 80%; pest or weed control at 320 g/ha (PHBPU; 320 g/ha): 90%; pest or weed control at 320 g/ha (DIGSA; 320 g/ha): 80%
